The values below come from ChEMBL document CHEMBL5442379, “ASAP - SARS-CoV-2 nsp3 macrodomain single point” (2024).

The assay has as its target Replicase polyprotein 1ab (Severe acute respiratory syndrome coronavirus 2) (UniProt P0DTD1).

Description: Functional biochemical assay to identify treatments for viral infectious disease that targets SARS-COV-2 nsp3 macrodomain, whereby the mechanism of action displaces an ADP-Ribose modified peptide from the binding site. Utilizing a time-resolved fluorescence method to measure binding by reading the emitted fluorescence intensity in two wavelengths.

On to `COc1cc(OC)cc(C(=O)N(CCC(=O)N2CCNCC2)Cc2cccc(Cl)c2)c1`, for which the inhibition (in general, the drop in the measured response relative to a control, in per cent) (Concentration 50.0 uM, Number of replicates 2.0, Standard deviation 1.533 %) was -4.53%.
Consider `Cc1ncc(NCc2csc(-c3ccccn3)n2)cn1`, for which the inhibition (Concentration 49.75 uM, Number of replicates 2.0, Standard deviation 3.788 %) was -5.23% and the inhibition (Concentration 99.5 uM, Number of replicates 2.0, Standard deviation 2.632 %) was -4.49%.
Consider `c1coc(CNc2ncnc3[nH]cnc23)c1`, for which the inhibition (Concentration 50.0 uM, Number of replicates 2.0, Standard deviation 0.16 %) was determined as 2.63%.
Consider `COc1ccccc1C[C@@H](Nc1ncnc2[nH]ccc12)C(C)C`, for which the inhibition by setting is: (Concentration 49.75 uM, Number of replicates 2.0, Standard deviation 1.888 %) 31.7%; (Concentration 99.5 uM, Number of replicates 2.0, Standard deviation 1.108 %) 48.5%.
Take `CN(CCOc1ccccc1)c1ncnc2[nH]ccc12`: the inhibition (Concentration 50.0 uM, Number of replicates 2.0, Standard deviation 4.668 %) was -2.26%.
Turning to `O=C(c1cccnc1S)N1CCC(c2ccn3ncc(C(=O)N4CCCCC4)c3c2)CC1`, the inhibition worked out at 32.3% (Concentration 49.75 uM, Number of replicates 2.0, Standard deviation 1.032 %) and 52.6% (Concentration 99.5 uM, Number of replicates 2.0, Standard deviation 1.028 %).
For the compound `c1ccc(-c2nc(CNc3cccnc3)cs2)nc1`, where the note is “Concentration 50.0 uM, Number of replicates 2.0, Standard deviation 0.432 %”, the inhibition is -9.87%.
Take `O=C(c1ccccc1)N1CCC(c2ccn3ncc(C(=O)N4CCc5cccnc54)c3c2)CC1`: the inhibition reads like this: (Concentration 49.75 uM, Number of replicates 2.0, Standard deviation 3.564 %) -4.67%; (Concentration 99.5 uM, Number of replicates 2.0, Standard deviation 0.208 %) -8.02%.
`O=S(=O)(Nc1cnc2[nH]ncc2c1)c1cnn(C2CCCC2)c1`: the inhibition (Concentration 50.0 uM, Number of replicates 2.0, Standard deviation 0.633 %) stood at 0.415%.
Consider `OCc1cn([C@@H]2CCCN(c3ncnc4[nH]ccc34)C2)nn1`, for which, under “Concentration 50.0 uM, Number of replicates 2.0, Standard deviation 2.708 %”, the inhibition was -0.682%.
With `O=C(c1ccc(O)nc1)N1CCC(c2ccn3ncc(C(=O)N4CCCCC4)c3c2)CC1`, the inhibition is, setting by setting: (Concentration 49.75 uM, Number of replicates 2.0, Standard deviation 5.093 %) 11%; (Concentration 99.5 uM, Number of replicates 2.0, Standard deviation 0.548 %) 26.5%.
With `CCCNC(=O)[C@H]1CCCN(c2ncnc3[nH]ccc23)C1`, the inhibition (Concentration 50.0 uM, Number of replicates 2.0, Standard deviation 0.927 %) was -4.36%.
In the case of `NC1(C(=O)N(CCC(=O)N2CCNCC2)Cc2cccc(Cl)c2)CC(F)(F)C1`, the inhibition is -3.48% (Concentration 49.75 uM, Number of replicates 2.0, Standard deviation 0.286 %) and -1.17% (Concentration 99.5 uM, Number of replicates 2.0, Standard deviation 3.805 %).
Turning to `OC[C@@]1(Cc2ccc(F)cc2)CCN(c2ncnc3[nH]ccc23)C1`, the inhibition (Concentration 50.0 uM, Number of replicates 2.0, Standard deviation 2.787 %) was found to be 5.07%.
With `COC(=O)c1cc2c(Oc3ccccc3C#N)ncnc2[nH]1`, the inhibition (Concentration 50.0 uM, Number of replicates 2.0, Standard deviation 0.741 %) is 2.92%.
As for `CC(C)[C@H]1N(c2ncnc3[nH]ccc23)CC12CCOCC2`, the inhibition is, setting by setting: (Concentration 49.75 uM, Number of replicates 2.0, Standard deviation 0.024 %) 27.6%; (Concentration 99.5 uM, Number of replicates 2.0, Standard deviation 0.45 %) 48%.
With `O=C(Nc1ccccc1)Nc1ccc(C(=O)N2CCOCC23CCC3)cc1`, the inhibition (Concentration 49.75 uM, Number of replicates 2.0, Standard deviation 0.885 %) is -5.18% and the inhibition (Concentration 99.5 uM, Number of replicates 2.0, Standard deviation 3.072 %) was -3.18%.
For `CC(C)[C@@H](CCN(C)C(=O)c1nn2cccnc2c1Cl)Nc1ncnc2[nH]ccc12`, the inhibition is, setting by setting: (Concentration 49.75 uM, Number of replicates 2.0, Standard deviation 6.794 %) 0.844%; (Concentration 99.5 uM, Number of replicates 2.0, Standard deviation 0.494 %) 1.65%.
As to `Cn1nncc1C(=O)N(CCC(=O)N1CCNCC1)Cc1cccc(Cl)c1`, the inhibition (Concentration 49.75 uM, Number of replicates 2.0, Standard deviation 1.263 %) came out at 0.447% and the inhibition (Concentration 99.5 uM, Number of replicates 2.0, Standard deviation 1.735 %) was -2.15%.
For `CC(C)n1ncnc1CNc1cc2c(=O)nc[nH]c2cn1`, the inhibition (Concentration 50.0 uM, Number of replicates 2.0, Standard deviation 0.347 %) is -1.49%.
With `NC(=O)c1ncccc1C(=O)N1CCC(c2ccn3ncc(C(=O)N4CCCCC4)c3c2)CC1`, the inhibition runs as follows: (Concentration 49.75 uM, Number of replicates 2.0, Standard deviation 4.804 %) 20%; (Concentration 99.5 uM, Number of replicates 2.0, Standard deviation 1.17 %) 36%.
On to `Cc1cccc2oc(CCNc3ncnc4[nH]ccc34)nc12`, for which, for the setting “Concentration 50.0 uM, Number of replicates 2.0, Standard deviation 6.123 %”, the inhibition is -3.26%.
With `Cn1nc(C(=O)O)cc1C(=O)N1CCC(c2ccn3ncc(C(=O)N4CCCCC4)c3c2)CC1`, the inhibition came to 34.2% (Concentration 49.75 uM, Number of replicates 2.0, Standard deviation 5.569 %) and 52.7% (Concentration 99.5 uM, Number of replicates 2.0, Standard deviation 2.729 %).
As for `Cc1cocc1C(=O)N(CCC(=O)N1CCNCC1)Cc1cccc(Cl)c1`, the inhibition by setting is: (Concentration 49.75 uM, Number of replicates 2.0, Standard deviation 0.438 %) 1.4%; (Concentration 99.5 uM, Number of replicates 2.0, Standard deviation 0.13 %) 0.51%.
With `O=C(NCc1nc2cccnc2[nH]1)c1cnc2nc[nH]c(=O)c2c1`, the inhibition is -1.99% (Concentration 50.0 uM, Number of replicates 2.0, Standard deviation 1.79 %) and 7.03% (Concentration 100.0 uM, Number of replicates 2.0, Standard deviation 3.352 %).
As to `O=C(O)c1ccsc1C(=O)N1CCC(c2ccn3ncc(C(=O)N4CCCCC4)c3c2)CC1`, the inhibition is, setting by setting: (Concentration 49.75 uM, Number of replicates 2.0, Standard deviation 4.674 %) 45%; (Concentration 99.5 uM, Number of replicates 2.0, Standard deviation 0.647 %) 61.2%.
For `O[C@@]1(C(F)(F)F)CCCN(c2ncnc3n[nH]cc23)CC1`, the inhibition (Concentration 50.0 uM, Number of replicates 2.0, Standard deviation 1.087 %) is -4.14%.
As for `O=C1NC[C@@H](C(=O)N(CCC(=O)N2CCNCC2)Cc2cccc(Cl)c2)O1`, the inhibition by setting is: (Concentration 49.75 uM, Number of replicates 2.0, Standard deviation 2.173 %) 0.125%; (Concentration 99.5 uM, Number of replicates 2.0, Standard deviation 10.437 %) 5.24%.
Turning to `Cc1cc(CNC(=O)c2cnn3ccc(C4CCN(C(=O)c5ccccc5)CC4)cc23)n(C)n1`, the inhibition was -5.51% (Concentration 49.75 uM, Number of replicates 2.0, Standard deviation 3.014 %) and -8.12% (Concentration 99.5 uM, Number of replicates 2.0, Standard deviation 0.205 %).
Regarding `Fc1ccc(Oc2cc(CNc3ncnc4nc[nH]c34)ccn2)cc1`, the inhibition (Concentration 50.0 uM, Number of replicates 2.0, Standard deviation 7.991 %) worked out at 2.01%.
As for `Cc1nc(NC(=O)[C@@H]2CCCOC2)c2ccnc-2[nH]1`, for the setting “Concentration 50.0 uM, Number of replicates 2.0, Standard deviation 1.269 %”, the inhibition was -3.2%.
As to `c1cc(CNc2ncnc3nc[nH]c23)n2ncnc2c1`, the inhibition (Concentration 50.0 uM, Number of replicates 2.0, Standard deviation 1.124 %) is 1.35% and the inhibition (Concentration 100.0 uM, Number of replicates 2.0, Standard deviation 5.338 %) stood at 10%.
For `c1nc(N2CCC[C@@H](c3nc4c(s3)CCC4)C2)c2c[nH]nc2n1`, the inhibition (Concentration 50.0 uM, Number of replicates 2.0, Standard deviation 1.131 %) was 3.83%.
As for `O=C(CCN(Cc1cccc(Cl)c1)C(=O)C1CCC(O)CC1)N1CCNCC1` (configuration not stated), the inhibition (Concentration 49.75 uM, Number of replicates 2.0, Standard deviation 4.563 %) is -4.32% and the inhibition (Concentration 99.5 uM, Number of replicates 2.0, Standard deviation 1.877 %) turned out to be 0.465%.
Turning to `O=C(CCN(Cc1cccc(Cl)c1)C(=O)[C@@H]1C[C@@H](O)CN1)N1CCNCC1`, the inhibition (Concentration 49.75 uM, Number of replicates 2.0, Standard deviation 1.654 %) is -3.54% and the inhibition (Concentration 99.5 uM, Number of replicates 2.0, Standard deviation 6.509 %) was 4.74%.
With `O=C(NCc1nc(-c2ccco2)n[nH]1)c1cc2nccn2c(=O)[nH]1`, the inhibition (Concentration 50.0 uM, Number of replicates 2.0, Standard deviation 0.515 %) is -5.42%.
Regarding `COc1cccc2cc(CNc3cnc4[nH]ncc4c3)oc12`, the inhibition (Concentration 50.0 uM, Number of replicates 2.0, Standard deviation 5.215 %) is -4.29%.
`C(=C1CCCCC1)c1ncnc2[nH]ccc12`: the inhibition is, setting by setting: (Concentration 50.0 uM, Number of replicates 2.0, Standard deviation 3.96 %) -5.46%; (Concentration 100.0 uM, Number of replicates 2.0, Standard deviation 2.541 %) 3.46%.
Regarding `Cc1[nH]c2ncnc(NC(=O)c3ccncc3Cl)c2c1C`, the inhibition by setting is: (Concentration 50.0 uM, Number of replicates 2.0, Standard deviation 1.372 %) 69.6%; (Concentration 100.0 uM, Number of replicates 2.0, Standard deviation 0.621 %) 85.6%.
On to `c1ccc2c(-c3c[nH]c4ncccc34)n[nH]c2c1`, for which the inhibition (Concentration 50.0 uM, Number of replicates 2.0, Standard deviation 4.4 %) is -7.25%.
As to `Cc1ccnc(C2CCN(c3ncnc4[nH]ccc34)CC2)n1`, the inhibition (Concentration 50.0 uM, Number of replicates 2.0, Standard deviation 3.755 %) is 3.46%.
Turning to `CCn1cc(CNc2nc3[nH]cnc3c(=O)[nH]2)nn1`, the inhibition (Concentration 50.0 uM, Number of replicates 2.0, Standard deviation 3.758 %) was -0.991%.
`O=C(CCN(Cc1cccc(Cl)c1)C(=O)C1(F)CCCCC1)N1CCNCC1`: the inhibition by setting is: (Concentration 49.75 uM, Number of replicates 2.0, Standard deviation 2.579 %) -3.58%; (Concentration 99.5 uM, Number of replicates 2.0, Standard deviation 1.426 %) 0.185%.
Consider `c1ccc(CN2CCO[C@@H](CNc3ncnc4nc[nH]c34)C2)cc1`, for which the inhibition (Concentration 50.0 uM, Number of replicates 2.0, Standard deviation 1.424 %) was -2.44%.
For `CSc1ccccc1NC(=O)c1ncnc2[nH]ccc12`, the inhibition (Concentration 50.0 uM, Number of replicates 2.0, Standard deviation 3.62 %) was -5.8%.
With `O=C(O)c1ccc(C(=O)N2CCC(c3ccn4ncc(C(=O)N5CCCCC5)c4c3)CC2)o1`, the inhibition (Concentration 49.75 uM, Number of replicates 2.0, Standard deviation 3.483 %) is 40.5% and the inhibition (Concentration 99.5 uM, Number of replicates 2.0, Standard deviation 5.512 %) was found to be 58.1%.
Turning to `O=C(CCN(Cc1cccc(Cl)c1)C(=O)c1ccc(O)cc1)N1CCNCC1`, the inhibition was -0.343% (Concentration 49.75 uM, Number of replicates 2.0, Standard deviation 5.17 %) and -1.63% (Concentration 99.5 uM, Number of replicates 2.0, Standard deviation 10.002 %).
